Data on one compound can be found in patent publication US12583851B2, “Heteroaryl-substituted pyrazine derivatives as pesticides” (Elanco Animal Health GmbH, priority 2019, dated 2026).

Holding throughout (assay type): in vivo
The test system of experiment [1] is Rhipicephalus (Boophilus) microplus larvae (strain Parkhurst, resistant against synthetic pyrethroids). Briefly: Rhipicephalus (Boophilus) microplus in-vitro contact test, larval cattle tick. The note with it: after 48 hours, read-out: efficacy (larvae dead or moribund). The procedure, abridged:
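Acetone solutions were coated onto glass tube walls (900 ppm gives 5 μg/cm²); after drying, 20–50 pyrethroid-resistant Parkhurst larvae added and held at 27 °C, 85% RH. At 48 h, efficacy as % larvae dead or moribund, judged by loss of negative geotaxis.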

Experiment [2] has as its system adult engorged female ticks (Rhipicephalus microplus). Briefly: Rhipicephalus (Boophilus) microplus injection test. The note with it: 168 h, 4 μg/animal, egg deposition after 7 days, read-out: efficacy (infertile eggs). The procedure, abridged: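 Five adult engorged female ticks injected into the abdomen with 1 μL compound solution in DMSO, then held in a climate chamber. Fertile egg deposition assessed after 7 days, unclear eggs kept until hatching (about 42 days); efficacy 100% = all eggs infertile, 0% = all fertile.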

Experiment [3] relates to adult cat fleas (Ctenocephalides felis). As to the kind of experiment: Ctenocephalides felis in-vitro contact test, adult cat flea. The note with it: 1 μg/cm^2 (=100 g/ha), after 48 hours, read-out: efficacy (fleas dead or moribund). The gist of the method:
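Acetone solution coated onto glass tube walls; 900 ppm gives 5 μg/cm². Once dry, 5–10 adult fleas per tube held at room temperature for 48 h. Efficacy (%) is the share of fleas dead or moribund, i.e. unable to climb away on a 45–50° C heating plate.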

Experiment [4] relates to adult unfed cat fleas (Ctenocephalides felis). Briefly: Ctenocephalides felis oral test. The note with it: 48 h, 100 ppm in citrated cattle blood, after 2 days. As for the experimental part:
Ctenocephalides felis—Oral Test
Solvent: dimethyl sulfoxide
To produce a suitable preparation of active compound, 10 mg of active compound are dissolved in 0.5 mL solvent, and the concentrate is diluted with citrated cattle blood to the desired concentration.
Approximately 20 adult unfed cat fleas (Ctenocephalides felis) are placed in a flea chamber whose top and bottom is covered with gauze. A chamber whose bottom is sealed with parafilm, is filled with the blood-compound solution and placed on top of the flea chamber, so that the fleas can suck the blood. The blood chamber is heated to 37° C. whereas the flea chamber is kept at room temperature.
After 2 days mortality in % is determined. 100% means all the fleas have been killed; 0% means none of the fleas have been killed.

Experiment [5] relates to adult brown dog ticks (Rhipicephalus sanguineus). Briefly: Rhipicephalus sanguineus in-vitro contact test, adult brown dog ticks. The note with it: 48 h, 5 μg/cm^2 (=500 g/ha), after 48 hours, read-out: efficacy (ticks dead or moribund). The procedure, abridged:
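Acetone solution coated on glass tube inner walls (900 ppm, giving 5 μg/cm^2); after drying, 5–10 adult ticks added and kept 48 h at room temperature. Efficacy scored as percent dead or moribund, i.e., ticks unable to climb away on a 45–50 °C heating plate within 5 min.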

The subject of experiment [6] is adult mosquitoes Aedes aegypti strain MONHEIM. As to the kind of experiment: Aedes aegypti test (AEDSAE surface treatment & contact assay). To be noted: 24 hours after contact, read-out: mortality (efficacy). On the procedure:
Aedes aegypti Test (AEDSAE Surface Treatment & Contact Assay)
(§1) Solvent: Aceton+2000 ppm rapeseed oil methyl ester (RME)
In order to produce a sufficient, active ingredient containing solution it is necessary to solve the test compound in the solvent-mix (acetone at 2 mg/ml/RME 2000 ppm). This solution is pipetted onto a glazed tile and after evaporation of the acetone, adult mosquitoes of the species Aedes aegypti strain MONHEIM are placed onto the dried surface. The exposure time is 30 minutes.
(§2) Mortality in percent (%) is determined 24 hours after contact of the insects to the treated surface. 100% mortality means that all tested insects are dead, whereas 0% means that no insect died.

Experiment [7] relates to adult mosquitoes Anopheles funestus strain FUMOZ-R. As to the kind of experiment: Anopheles funestus test (ANPHFU surface treatment & contact assay). The note with it: surface concentration 20 mg/m^2, 30 minutes exposure, 24 hours after contact, read-out: mortality (efficacy). On the procedure:
Anopheles funestus Test (ANPHFU Surface Treatment & Contact Assay)
as §1
In order to produce a sufficient, active ingredient containing solution it is necessary to solve the test compound in the solvent-mix (acetone at 2 mg/ml/RME 2000 ppm). This solution is pipetted onto a glazed tile and after evaporation of the acetone, adult mosquitoes of the species Anopheles funestus strain FUMOZ-R (Hunt et al., Med. Vet. Entomol. 2005 Sep. 19(3): 271-275) are placed onto the dried surface. The exposure time is 30 minutes.
as §2

Experiment [8] has as its system adult flies Musca domestica strain WHO-N. As to the kind of experiment: Musca domestica test (MUSCDO surface treatment & contact assay). To be noted: surface concentration 4 mg/m^2, 30 minutes exposure, 24 hours after contact, read-out: mortality (efficacy). As for the experimental part:
Musca domestica Test (MUSCDO Surface Treatment & Contact Assay)
as §1
In order to produce a sufficient, active ingredient containing solution it is necessary to solve the test compound in the solvent-mix (acetone at 2 mg/ml/RME 2000 ppm). This solution is pipetted onto a glazed tile and after evaporation of the acetone, adult flies of the species Musca domestica strain WHO-N are placed onto the dried surface. The exposure time is 30 minutes.
as §2

Experiment [9] concerns adult Blattella germanica strain PAULINIA
Briefly: Blattella germanica test (BLTTGE surface treatment & contact assay). The note with it: surface concentration 20 mg/m^2, 30 minutes exposure, 24 hours after contact, read-out: mortality (efficacy). As for the experimental part:
Blattella germanica Test (BLTTGE Surface Treatment & Contact Assay)
as §1
In order to produce a sufficient, active ingredient containing solution it is necessary to solve the test compound in the solvent-mix (acetone at 2 mg/ml/RME 2000 ppm). This solution is pipetted onto a glazed tile and after evaporation of the acetone, adult animals of the species Blattella germanica strain PAULINIA are placed onto the dried surface. The exposure time is 30 minutes.
as §2

The structures appear in SMILES notation.

The mortality is the share of the test organisms that died. Take `CC(NC(=O)c1cc(F)cc(C(F)(F)F)c1)c1nccnc1-c1ncccn1` (racemic) [Example I-7, (rac)-3-Fluoro-N-(1-(3-(pyrimidin-2-yl)pyrazin-2-yl)ethyl)-5-(trifluoromethyl)benzamide]: the pest or weed control at 1 µg/cm2, 100 g/ha in [1] (1 μg/cm^2 (=100 g/ha)) came to 100%; in [3], 90%. Further, the pest or weed control at 5 µg/cm2, 500 g/ha in experiment [1] (5 μg/cm^2 (=500 g/ha)) and in [5] was 100% in each case. The pest or weed control at 0.004 mg in experiment [2] is 100%. This compound returned a mortality at 100 ppm in [4] of 100%. The mortality at 4 mg/m2 lay within 80 to 100% in experiment [6] (surface concentration 4 mg/m^2, 30 minutes exposure) and 80 to 100% in experiment [8]. The mortality at 20 mg/m2 in [6] (surface concentration 20 mg/m^2, 30 minutes exposure) was in the range of 80 to 100%; in experiment [7], 80 to 100%; in experiment [9], 80 to 100%.
